From US20100035943A1, “Oxa-and thiadiazoles and their use as metalloproteinase inhibitors” (VERNALIS (OXFORD) LTD, priority 2002, published 2010)

Assays:
92 kDa gelatinase (MMP9) = 92 kDa gelatinase (MMP9) (Homo sapiens, UniProt P14780); experiment: MMP9 enzyme inhibition assay (fluorogenic peptide substrate McaPLGLDpaAR); type: biochemical; conditions: recombinant human 92 kDa gelatinase, 37° C., 2 hours
Protocol: (§1) Compounds were tested for inhibitory activity against 92 kDa gelatinase (MMP9) in an assay using a coumarin-labelled peptide substrate, (7-methoxycoumarin-4-yl)acetyl-Pro-Leu-Gly-Leu-(3-[2,4-dinitrophenyl]-L-2,3-diaminopropionyl)-Ala-Arg-NH2 (McaPLGLDpaAR) (Knight et al, FEBS Lett. 1992; 263-266).
(§2) Stock solutions were made up as follows: • Assay Buffer: 100 mM Tris-HCl pH 7.6 containing 100 mM NaCl, 10 mM CaCl2, and 0.05% Brij 35 • Substrate: 0.4 mM McaPLGLDpaAR (from Bachem) (0.437 mg/ml) stock solution in 100% DMSO (stored at −20° C.). Dilute to 8 μM in assay buffer. • Enzyme: Recombinant human 92 kDa gelatinase (MMP-9; APMA (4-aminophenyl • mercuric acetate)—activated if necessary) appropriately diluted in assay buffer.
(§3) Test Compounds were prepared initially as 10 mM compound solution in 100% DMSO, diluted to 1 mM in 100% DMSO, then serially diluted 3-fold in 100% DMSO across columns 1-10 of a 96-well microtitre plate Assay concentration range, 100 μM (column 1) to 5.1 nM (column 10)
(§4) The assay was performed in a total volume of 100 μl per well in 96-well microtitre plates. Activated enzyme (20 μl) was added to the wells followed by 20 μl of assay buffer. Appropriate concentrations of test compounds dissolved in 10 μl of DMSO were then added followed by 50 μl of McaPLGLDpaAR (8 μM, prepared by dilution of DMSO stock in assay buffer). For each assay ten concentrations of test compound were examined in duplicate. Control wells lack either enzyme or test compound. The reactions were incubated at 37° C. for 2 hours. The fluorescence at 405 nm was measured immediately with an SLT Fluostar fluorometer (SLT Labinstruments GmbH, Grödig, Austria) using 320 nm excitation, without stopping the reaction.
(§5) The effect of the test compound was determined from the dose response curve generated by the 10 duplicate concentrations of inhibitor. The IC50 (the concentration of compound required to give a 50% decrease in enzyme activity) was obtained by fitting data to the equation, Y=a+((b−a)/(1+(c/X)^d)). (Y=inhibition achieved for a particular dose; X=the dose in nM; a=minimum y or zero % inhibition; b=maximum y or 100% inhibition; c=is the IC50; d=is the slope). The result was rounded to one significant figure.

metalloelastase (MMP12) = metalloelastase (MMP12) (Homo sapiens, UniProt P39900); experiment: MMP12 enzyme inhibition assay (fluorogenic peptide substrate McaPLGLDpaAR); type: biochemical; conditions: protocol as for MMP9 assay
Chain of metalloelastase (MMP12) (P39900 106-470): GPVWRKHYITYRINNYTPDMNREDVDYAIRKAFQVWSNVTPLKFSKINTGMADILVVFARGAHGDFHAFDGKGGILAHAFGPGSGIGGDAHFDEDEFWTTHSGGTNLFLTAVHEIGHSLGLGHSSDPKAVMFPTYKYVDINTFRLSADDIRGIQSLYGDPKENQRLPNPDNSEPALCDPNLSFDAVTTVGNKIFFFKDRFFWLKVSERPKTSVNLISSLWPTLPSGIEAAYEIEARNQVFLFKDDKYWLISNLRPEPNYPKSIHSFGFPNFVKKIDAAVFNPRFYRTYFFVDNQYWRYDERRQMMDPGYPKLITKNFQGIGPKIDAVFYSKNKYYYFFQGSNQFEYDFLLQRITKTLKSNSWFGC
Protocol: as §2, §3, §4, §5
as §1, with “metalloelastase (MMP12)” for “92 kDa gelatinase (MMP9)”, “263-266). The protocol for this assay was as described for the MMP9 assay above.” for “263-266).”

collagenase (MMP1) = target: T1, collagenase (MMP1) (Homo sapiens, UniProt P03956); experiment: MMP1 enzyme inhibition assay (fluorogenic peptide substrate McaPLGLDpaAR); type: biochemical; conditions: protocol as for MMP9 assay
T1 sequence (P03956 100-469): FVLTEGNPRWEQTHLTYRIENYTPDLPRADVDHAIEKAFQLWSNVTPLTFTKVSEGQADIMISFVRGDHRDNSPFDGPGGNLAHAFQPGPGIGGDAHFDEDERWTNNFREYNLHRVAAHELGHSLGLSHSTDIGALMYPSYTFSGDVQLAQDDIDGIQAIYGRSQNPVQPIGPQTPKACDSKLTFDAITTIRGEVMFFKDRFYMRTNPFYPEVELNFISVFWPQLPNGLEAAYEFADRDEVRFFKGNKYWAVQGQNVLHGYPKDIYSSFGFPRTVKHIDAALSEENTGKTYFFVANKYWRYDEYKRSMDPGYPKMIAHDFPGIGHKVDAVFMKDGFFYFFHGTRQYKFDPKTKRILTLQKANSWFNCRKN
Protocol: as §2, §3, §4, §5
as §1, with “• Compounds” for “Compounds”, “collagenase (MMP1)” for “92 kDa gelatinase (MMP9)”, “263-266). The protocol for this assay was as described for the MMP9 assay above.” for “263-266).”

[1] = test system: IL2-induced lymphocyte recruitment; experiment: IL2-induced peritoneal recruitment of lymphocytes; type: in vivo, C3H/HEN mice; conditions: mice, Subcutaneous route, 15 min prior to IL2, cells counted 24 hours after IL2
Protocol: Administration of IL2 intraperitoneally causes migration of lymphocytes into the intraperitoneal cavity. This is a model for the cellular migration that occurs during inflammation.
C3H/HEN mice (Elevage Janvier, France) were intraperitoneally injected with IL2 (Serono Pharmaceutical Research Institute, 20 μg/kg, in saline). Compounds of the invention were suspended in 0.5% carboxymethylcellulose (CMC)/0.25% tween-20 and were administered by sc or po route (10 ml/kg) 15 min prior to administration of IL2.
Twenty-four hours after administration of IL2, peritoneal white blood cells were collected by 3 successive lavages of the peritoneal cavity with 5 ml phosphate buffered saline (PBS)-1 mM EDTA (+4° C.). The suspension was centrifuged (1700 g×10 min at +4° C.). The resulting pellet was suspended in 1 ml PBS-1 mM EDTA.
Lymphocytes were identified and counted using a Beckman/Coulter counter.
The animals were divided into 5 groups (6 mice each group):
Group 1: (baseline) received 0.5% CMC/0.25% tween-20 (vehicle of compound of the invention) and saline (vehicle of IL2); Group 2: (control IL2) received 0.5% CMC/0.25% tween-20 and injection of IL2; Group 3: Experimental group (Compound of the invention Dose 1) received a compound of the invention and injection of IL2; Group 4: Experimental group (Compound of the invention Dose 2) received a compound of the invention and injection of IL2; Group 5: Experimental group (Compound of the invention Dose 3) received a compound of the invention and injection of IL2; Group 6: Reference group received reference compound dexamethasone and injection of IL2
Inhibition of lymphocyte recruitment was calculated as follows:
Where Ly 1=Number of lymphocytes in group 1 (E3/μl), Ly 2=Number of lymphocytes in group 2 (E3/μl), Ly X=Number of lymphocytes in group X (3-5) (E3/μl)
The dose of compound of the invention required to inhibit lymphocyte recruitment by 50% (ID50) was calculated using a curve-fitting routine.

Chain of 92 kDa gelatinase (MMP9) (P14780 107-707 limits assumed): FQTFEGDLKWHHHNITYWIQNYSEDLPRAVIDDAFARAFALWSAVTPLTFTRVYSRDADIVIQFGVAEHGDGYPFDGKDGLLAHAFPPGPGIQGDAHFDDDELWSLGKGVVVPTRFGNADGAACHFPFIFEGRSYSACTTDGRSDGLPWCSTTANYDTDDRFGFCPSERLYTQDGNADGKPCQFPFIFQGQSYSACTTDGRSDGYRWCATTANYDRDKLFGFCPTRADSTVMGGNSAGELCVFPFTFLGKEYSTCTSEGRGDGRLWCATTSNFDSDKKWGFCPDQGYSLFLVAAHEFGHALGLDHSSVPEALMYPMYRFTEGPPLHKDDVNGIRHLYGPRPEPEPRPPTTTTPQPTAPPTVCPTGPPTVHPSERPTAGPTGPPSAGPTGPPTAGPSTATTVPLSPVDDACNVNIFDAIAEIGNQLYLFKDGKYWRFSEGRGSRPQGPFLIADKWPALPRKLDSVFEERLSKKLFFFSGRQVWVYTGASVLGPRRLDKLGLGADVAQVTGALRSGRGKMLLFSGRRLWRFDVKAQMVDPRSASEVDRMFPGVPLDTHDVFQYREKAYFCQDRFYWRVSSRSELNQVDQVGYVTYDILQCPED

IC50 (92 kDa gelatinase (MMP9)) [nM]	IC50 (metalloelastase (MMP12)) [nM]	IC50 (collagenase (MMP1)) [nM]	SMILES	ID50 for inhibition of IL2-induced peritoneal recruitment of lymphocytes [1] [mg/kg]
100 to 1000	< 100	100 to 1000	CC(C)C[C@@H](C(=O)N[C@H](c1nc(C(C)C)no1)C(C)(C)C)[C@H](O)C(=O)NO [Example 18, 2S-Hydroxy-3R-[1S-(3-isopropyl-[1,2,4]oxadiazol-3-yl)-2,2-dimethyl-propylcarbamoyl]-5-methyl Hexanohydroxamic Acid]	
100 to 1000	< 100	100 to 1000	CC(C)C[C@@H](C(=O)N[C@H](c1noc(-c2ccco2)n1)C(C)(C)C)[C@H](O)C(=O)NO [Example 5, 2S-Hydroxy-3R-[1S-(5-furan-2-yl-[1,2,4]oxadiazol-3-yl)-2,2-dimethyl-propylcarbamoyl]-5-methyl Hexanohydroxamic Acid]	1
100 to 1000	< 100	100 to 1000	CC(C)C[C@@H](C(=O)N[C@H](c1noc(C(C)C)n1)C(C)(C)C)[C@H](O)C(=O)NO [Example 4, 2S-Hydroxy-3R-[1S-(5-isopropyl-[1,2,4]oxadiazol-3-yl)-2,2-dimethyl-propylcarbamoyl]-5-methyl Hexanohydroxamic Acid]	
1000 to 10000	< 100	100 to 1000	Cc1nc([C@@H](NC(=O)[C@H](CC(C)C)[C@H](O)C(=O)NO)C(C)(C)C)no1 [Example 17, 2S-Hydroxy-3R-[1S-(5-methyl-[1,2,4]oxadiazol-3-yl)-2,2-dimethyl-propylcarbamoyl]-5-methyl Hexanohydroxamic Acid]	
100 to 1000	< 100	100 to 1000	CCc1nc([C@@H](NC(=O)[C@H](CC(C)C)[C@H](O)C(=O)NO)C(C)(C)C)no1 [Example 8, 2S-Hydroxy-3R-[1S-(5-ethyl-[1,2,4]oxadiazol-3-yl)-2,2-dimethyl-propylcarbamoyl]-5-methyl Hexanohydroxamic Acid]	
1000 to 10000	100 to 1000	1000 to 10000	CC(C)C[C@@H](C(=O)N[C@H](c1noc(-c2cccs2)n1)C(C)(C)C)[C@H](O)C(=O)O [Example 29, 3R-[2,2-Dimethyl-1S-(5-thiophen-2-yl-[1,2,4]oxadiazol-3-yl)-propylcarbamoyl]-2S-hydroxy-5-methyl-hexanoic Acid]	
100 to 1000	< 100	100 to 1000	CC(C)C[C@@H](C(=O)N[C@H](c1noc(C2CC2)n1)C(C)(C)C)[C@H](O)C(=O)NO [Example 16, 2S-Hydroxy-3R-[1S-(5-cyclopropyl-[1,2,4]oxadiazol-3-yl)-2,2-dimethyl-propylcarbamoyl]-5-methyl Hexanohydroxamic Acid]	

Further lines, the compound ahead of its results:

SMILES	IC50 (92 kDa gelatinase (MMP9)) [nM]	IC50 (metalloelastase (MMP12)) [nM]	IC50 (collagenase (MMP1)) [nM]	ID50 for inhibition of IL2-induced peritoneal recruitment of lymphocytes [1] [mg/kg]
C=CC[C@H](C(=O)NO)[C@@H](CC(C)C)C(=O)N[C@@H](Cc1ccccc1)c1nc(C(C)C)no1 [Example 21, 2S-Allyl-5-methyl-3R-[2-phenyl-1S-(3-isopropyl-[1,2,4]oxadiazol-5-yl)-ethylcarbamoyl]-hexanohydroxamic Acid]	< 100	< 100	100 to 1000	
CC(C)C[C@H](CC(=O)NO)C(=O)N[C@H](c1nc(-c2ccccc2)no1)C(C)(C)C [Example 24, 3R-[2,2-Dimethyl-1S-(3-phenyl-[1,2,4]oxadiazol-5-yl)-propylcarbamoyl]-5-methyl-hexanohydroxamic Acid]	1000 to 10000	< 100	1000 to 10000	
CC(C)c1noc([C@@H](NC(=O)[C@H](CC2CCCC2)[C@H](O)C(=O)NO)C(C)(C)C)n1 [Example 32, 2R-Cyclopentylmethyl-3S,N4-dihydroxy-N1-[1S-(3-isopropyl-[1,2,4]oxadiazol-5-yl)-2,2-dimethyl-propyl]-succinamide]	< 100	< 100	< 100	
CCOc1ccc(CCC[C@@H](C(=O)N[C@H](c2noc(-c3ccco3)n2)C(C)(C)C)[C@H](O)C(=O)NO)cc1 [Example 35, 2R-[3-(4-Ethoxy-phenyl)-propyl]-N1-[1S-(5-furan-2-yl-[1,2,4]oxadiazol-3-yl)-2,2-dimethyl-propyl]-3S,N4-dihydroxy-succinamide]	< 100	< 100	> 10000	
CC(C)C[C@@H](C(=O)N[C@H](c1nc(-c2ccccc2)no1)C(C)(C)C)[C@H](O)C(=O)NO [Example 2, 3R-[2,2-Dimethyl-1S-(3-phenyl-[1,2,4]oxadiazol-5-yl)-propylcarbamoyl]-2S-hydroxy-5-methyl-hexanohydroxamic Acid]	100 to 1000	< 100	100 to 1000	
C=CC[C@H](C(=O)NO)[C@@H](CC(C)C)C(=O)N[C@@H](Cc1ccccc1)c1nc(-c2ccccc2)no1 [Example 20, 2S-Allyl-5-methyl-3R-[2-phenyl-1S-(3-phenyl-[1,2,4]oxadiazol-5-yl)-ethylcarbamoyl]-hexanohydroxamic Acid]	< 100	< 100	100 to 1000	
C[C@@H]1C[C@H]2[C@@H]3CCC4=CC(=O)C=C[C@]4(C)[C@@]3(F)[C@@H](O)C[C@]2(C)[C@@]1(O)C(=O)CO [dexamethasone, reference compound]				0.05
CC(C)(C)[C@H](NC(=O)[C@H](C/C=C/c1ccccc1)[C@H](O)C(=O)NO)c1nc(-c2ccccc2)no1 [Example 31, N4-[2,2-Dimethyl-1S-(3-phenyl-[1,2,4]oxadiazol-5-yl)-propyl]-2S,N1-dihydroxy-3R-(3-phenyl-allyl)-succinamide]	> 10000	100 to 1000	> 10000	
